# Measured values as given in patent US20250129095A1, “ANNULATED 2-AMINO-3-CYANO THIOPHENES AND DERIVATIVES FOR THE TREATMENT OF CANCER” (Boehringer Ingelheim Int'l GmbH Corp., priority 2021, published 2025).
# Target: T1, KRAS (G13D)::SOS1 (Homo sapiens, UniProt P01116, C118S/G13D)
# T1 construct: KRAS (G13D) 1-169, N-terminal 6His-tag for purification, cleaved off; 6His-tag (N, cleaved yes); TEV cleavage site; made in house
# Assay: KRAS::SOS1 AlphaScreen binding assay, KRAS G13D
# Excerpt: This assay can be used to examine the potency with which compounds according to the invention binding to (mutated) KRAS inhibit the protein-protein interaction between SOS1 and (mutated) KRAS e.g., KRAS WT, KRAS G12C, KRAS G12D, KRAS G12V, KRAS G13D. […] Low IC50 values in this assay setting are indicative of strong inhibition of protein-protein interaction between SOS1 and KRAS:
# These assays measure the inhibitory effect of compounds on KRAS mutant protein-protein interactions using the Alpha Screen technology by Perkin Elmer […]
# Plates are kept at room temperature in a darkened incubator. After an additional 60 minutes incubation time the signal is measured in a PerkinElmer Envision HTS Multilabel Reader using the AlphaScreen specs from PerkinElmer. […]
# As internal control known inhibitors of KRAS mutant::SOS1 interaction can be measured on each compound plate. […]
# T1 sequence (P01116 1-169 isoform P01116-2 G13D/C118S): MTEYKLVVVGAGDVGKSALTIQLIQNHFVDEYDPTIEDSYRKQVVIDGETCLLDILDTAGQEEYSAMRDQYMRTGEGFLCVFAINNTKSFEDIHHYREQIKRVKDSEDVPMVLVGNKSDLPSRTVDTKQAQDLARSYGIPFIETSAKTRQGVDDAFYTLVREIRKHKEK
row,IC50,Structure (SMILES)
1,6 nM,C[C@H](Oc1cc(OCC2(N(C)C)COC2)nc(-c2noc3c2CCC[C@@]32CCCc3sc(N)c(C#N)c32)n1)[C@@H]1CCCN1C [II-22]
2,8 nM,C[C@H](Oc1cc(OCC2(N(C)C)COC2)nc(-c2onc3c2CCC[C@@]32CCCc3sc(N)c(C#N)c32)n1)[C@@H]1CCCN1C [Example I-8]
3,8 nM,COc1c(OCC2(N(C)C)COC2)nc(-c2noc3c2CCC[C@@]32CCCc3sc(N)c(C#N)c32)nc1O[C@@H](C)[C@@H]1CCCN1C [II-25]
